For 15 compounds, mortality results are on record in ChEMBL document CHEMBL3044633, “Synthesis and Insecticidal Activity of 3, 5-Dimethylbenzoyl Moiety Modified Analogues of N-tert-Butyl-N-(4-ethylbenzoyl)-3, 5-dimethylbenzohydrazide” (2002).

Holding throughout (format): functional
Common to all, as to conditions: foliar, 120 h

The test system of assay [1] is Spodoptera litura. The experiment in a line: Insecticidal activity against the Spodoptera litura larvae in compound treated cabbage leaves assessed as mortality at 200 ppm measured after 5 days by leaf dipping method.
Assay [2] deals with Spodoptera litura. Put plainly: Insecticidal activity against the Spodoptera litura larvae in compound treated cabbage leaves assessed as mortality at 50 ppm measured after 5 days by leaf dipping method.
Assay [3] concerns Spodoptera litura. The experiment in a line: Insecticidal activity against the Spodoptera litura larvae in compound treated cabbage leaves assessed as mortality at 12.5 ppm measured after 5 days by leaf dipping method.
For assay [4], the system named is Spodoptera litura. Put plainly: Insecticidal activity against the Spodoptera litura larvae in compound treated cabbage leaves assessed as mortality at 3.1 ppm measured after 5 days by leaf dipping method.

Turning to `CCc1ccc(C(=O)NN(C(=O)c2ccc3ncoc3c2)C(C)(C)C)cc1`, the mortality at 200 ppm in assay [1] is 1%.

For the compound `CCc1ccc(C(=O)NN(C(=O)c2cc(C)cc(COC)c2)C(C)(C)C)cc1`, the mortality at 200 ppm in assay [1] turned out to be 9%. Also, in assay [2], the mortality at 50 ppm came out at 5%. On to `CCc1ccc(C(=O)NN(C(=O)c2cc(C)cc(CF)c2)C(C)(C)C)cc1`, for which, in assay [1], the mortality at 200 ppm turned out to be 10%. Moreover, the mortality at 50 ppm in assay [2] was 10%. In assay [3], the mortality at 12.5 ppm was found to be 5%. With `CCc1ccc(C(=O)NNC(=O)C2CC(C)CC(C)C2)cc1` (centres undefined), the mortality at 200 ppm in assay [1] is 1%. Besides, in assay [2], the mortality at 50 ppm turned out to be 0%. With `CCc1ccc(C(=O)NN(C(=O)c2cc(C)cc(C=O)c2)C(C)(C)C)cc1`, the mortality at 200 ppm in assay [1] came to 0%.

Regarding `CCc1ccc(C(=O)NN(C(=O)C2C=C(C)CC(C)=C2)C(C)(C)C)cc1`, the mortality at 200 ppm in assay [1] worked out at 10%. Besides, the mortality at 50 ppm in assay [2] worked out at 10%. The mortality at 12.5 ppm in assay [3] was 4%. In the case of `CCc1ccc(C(=O)NN(C(=O)c2cc(C)cc(CCl)c2)C(C)(C)C)cc1`, the mortality at 200 ppm in assay [1] stood at 7%. The mortality at 50 ppm in assay [2] is 1%. Turning to `CCc1ccc(C(=O)NN(C(=O)c2cc(C)cc(CO[Si](C)(C)C(C)(C)C)c2)C(C)(C)C)cc1`, in assay [1], the mortality at 200 ppm is 0%.

For the compound `C=Cc1cc(C)cc(C(=O)N(NC(=O)c2ccc(CC)cc2)C(C)(C)C)c1`, the mortality at 200 ppm in assay [1] amounted to 10%. Besides, the mortality at 50 ppm in assay [2] stood at 7%. For the same compound, the mortality at 12.5 ppm in assay [3] is 1%. Regarding `CCc1ccc(C(=O)NN(C(=O)c2ccc3ocnc3c2)C(C)(C)C)cc1`, the mortality at 200 ppm in assay [1] was 5%. On the same count and under the same terms, to `CCc1ccc(C(=O)NN(C(=O)c2ccc3c(c2)OCCO3)C(C)(C)C)cc1` belongs 0%. On to `CCc1ccc(C(=O)NN(C(=O)c2cc(C)cc(CO)c2)C(C)(C)C)cc1`, for which the mortality at 200 ppm in assay [1] came out at 0%. Regarding `CCc1ccc(C(=O)NN(C(=O)c2cc(C)cc(C)c2)C(C)(C)C)cc1` [TEBUFENOZIDE], the mortality at 200 ppm in assay [1] was determined as 10%. For the same compound, the mortality at 50 ppm in assay [2] amounted to 10%. Moreover, the mortality at 3.1 ppm in assay [4] is 3%. Moreover, the mortality at 12.5 ppm in assay [3] amounted to 10%.

For `CCc1ccc(C(=O)NN(C(=O)c2cc(C)cc(C(F)F)c2)C(C)(C)C)cc1`, the mortality at 200 ppm in assay [1] was 10%. In assay [2], the mortality at 50 ppm is 10%. Besides, the mortality at 12.5 ppm in assay [3] amounted to 8%. For `CCCCOCc1cc(C)cc(C(=O)N(NC(=O)c2ccc(CC)cc2)C(C)(C)C)c1`, in assay [1], the mortality at 200 ppm came out at 0%.

For orientation: mortality means the percentage killed.
